Laboratory results: patent publication US20240101599A1, “PEPTIDE, CELL GROWTH PROMOTER, PROTEIN PRODUCTION PROMOTER, CULTURE MEDIUM, CELL GROWTH METHOD USING PEPTIDE, AND PROTEIN PRODUCTION METHOD USING PEPTIDE” (Maruhachi Muramatsu, Inc., priority 2020, published 2024)
Peptide text beside a SMILES is read from it.

Tested on: CHO-K1
Assay: Cell growth test of each peptide on coating agent for 5 days
Assay type: cell-based
Set-up: Viability, 1 / Viability, 2 / Viability, 3 / Viability, Mean: unit not given here
Conditions: 2.0 mM Ala-Gly-Lys, 2.1 mM Gly-Glu-Lys, 2.5 mM Gly-Gly-Gly, poly-L-lysine coating; for Cells cell count, Mean / Viability, Mean: mean n=3, 2.2 mM Asp-Gly-Pro; for Cells cell count, 1 / Viability, 1: replicate 1, 2.2 mM Asp-Gly-Pro; for Cells cell count, 2 / Viability, 2: replicate 2, 2.2 mM Asp-Gly-Pro; for Cells cell count, 3 / Viability, 3: replicate 3, 2.2 mM Asp-Gly-Pro
Method: Peptides having the sequences of Asp-Gly-Pro (DGP), Ala-Gly-Lys (AGK), Gly-Glu-Lys (GEK), and Gly-Gly-Gly (GGG) were synthesized to prepare each peptide solution such that the concentration was a concentration at which the cell number increased the most within a range of 0 mM to 5 mM. In other words, Asp-Gly-Pro (DGP) was adjusted to 22 mM, Ala-Gly-Lys (AGK) was adjusted to 20 mM, Gly-Glu-Lys (GEK) was adjusted to 21 mM, and Gly-Gly-Gly (GGG) was adjusted to 25 mM, and an amount of 1/10 of the total culture medium volume was added to each well immediately before the cell culture test such that final concentrations were 2.2 mM, 2.0 mM, 2.1 mM, and 2.5 mM, respectively. Poly-L-lysine (Peptide Institute, Inc., Poly-L-Lysine Hydrochloride, code: 3075) was prepared to 0.1 mg/mL, and 200 μL was dispensed into each well of a 24-well plate, which was left to stand in an incubator at 37° C. for 2 hours. After removing the residual liquid with an aspirator, rinsing was performed with distilled water, irradiation was performed with a UV lamp in a clean bench without a lid, and drying was performed overnight to sterilize. A cell suspension prepared such that CHO-K1 (RIKEN BioResource Research Center, cell number: RCB2330) was at 4×10^4 cells/mL was seeded in each well of a 24-well plate at 500 μL/well and cultured in an incubator at 37° C. and 5% CO2 for 24 hours. As a culture medium, an MEMα culture medium (Gibco) containing 10% FBS was used.
After removing the culture medium from each well and washing with the MEMα culture medium (500 μL), 450 μL of a new MEMα culture medium was dispensed into each well, and each peptide solution (50 μL) was added (total 500 μL/well) to perform culture for 5 days. The cells were recovered to count the cell number. A similar culture test was performed using a system containing neither peptide nor FBS as a comparative sample.
The culture medium in each well was recovered in a 1.5 mL tube to be rinsed with 200 μL of MEMα, and the rinsed liquid was also recovered in the same 1.5 mL tube. Thereafter, 100 μL of trypsin was added and incubated for 3 minutes. After rinsing with 300 μL of MEMα containing 10% FBS, the rinsed liquid was also recovered in the same 1.5 mL tube. After rinsing again with 200 μL of MEMα containing 10% FBS, the rinsed liquid was also recovered in the same 1.5 mL tube.
A centrifugation operation was performed on the cells recovered in the 1.5 mL tube. The centrifugation conditions were 1,000 rpm, 10 minutes, and 4° C.
The supernatant was removed, and 300 μL of Cold PBS (phosphate buffered saline) was added to perform a centrifugation operation under the same conditions. The present operation was repeated twice.
Suspension was carried out with 100 μL of Binding Buffer, and 2 μL of propidium iodide (PI) was added and stirred in the tube to cause a reaction for 15 minutes at room temperature and with light shielding. Thereafter, the viable cell count and the cell viability were measured with a flow cytometer.
The above preparation, culture, and measurement were performed with n=3. Table 15 and FIG. 15 show the viable cell count in each peptide solution, and Table 16 and FIG. 16 show the cell viability in each peptide solution.

Compound	Cells cell count, Mean	Viability, Mean	Cells cell count, 1	Viability, 1	Cells cell count, 2	Viability, 2	Cells cell count, 3	Viability, 3
C[C@H](N)C(=O)NCC(=O)N[C@@H](CCCCN)C(=O)O [AGK, Ala-Gly-Lys] (H-Ala-Gly-Lys-OH; N-terminus and C-terminus assumed)	2.6217 ×10^4	25.0	2.6860 ×10^4	26.4	3.0605 ×10^4	26.4	2.1185 ×10^4	22.1
NCCCC[C@H](NC(=O)[C@H](CCC(=O)O)NC(=O)CN)C(=O)O [GEK, Gly-Glu-Lys] (H-Gly-Glu-Lys-OH; N-terminus and C-terminus assumed)	16.5830 ×10^4	90.3	15.7190 ×10^4	90.2	16.9875 ×10^4	90.3	17.0425 ×10^4	90.5
Asp-Gly-Pro [DGP]	14.9353 ×10^4	89.6	15.8220 ×10^4	91.5	14.8590 ×10^4	91.2	14.1250 ×10^4	86.0
